Data: PMC3759246 (Bioorganic & medicinal chemistry letters, 2013)
Marks after values point to notes of the source that are not given here.

Experiments:
[1] = cited from earlier work
WT HIV-1 (IIIB) = assay: microbe, parasite or virus in culture; conditions: Human immunodeficiency virus 1, IIIB, MT2, read-out: EC50 in cell assays

EC50 (WT HIV-1 (IIIB)) [nM] | SMILES | Aqueous solubility S [1]
 | Cc1cc(C#N)cc(C)c1Oc1nc(Nc2ccc(C#N)cc2)nc(N)c1Br [etravirine] | ≪ 1 ^b μg/mL
~100 | Cc1ccnc2c1NC(=O)c1cccnc1N2C1CC1 [nevirapine] | 
